The record followed here is patent US5830903A, “Triazole substituted quinoline derivatives for gastrointestinal treat-treatment” (Alkaloida Chemical Co., Ltd., priority 1993, dated 1998).

Read-outs that look alike come from different tables or passages of the source. Marks after values point to notes of the source that are not given here.

For data set [1], the system named is alcohol induced increase of gastric glandular capillary permeability. In words: Alcohol induced increase of gastric glandular capillary permeability. The format is in vivo, rats. The settings on record: 100% ethanol alone. How it is done:
After 13 minutes 1 ml of 100% ethanol was added perorally and after further 2 minutes the stomachs were removed and their weights measured. […]

Data set [2] deals with lesions caused by intomethacin. Nature of the data set: Indomethacin-induced gastric lesions. Format: in vivo, female OFA-rats. The note with it: Rattus norvegicus, po, 6 h, read-out: ED50 mg/kg (p.o.). As for the experimental part: The compounds were administered in a volume of 0.5 ml/100 g in a suspension prepared in water with 2-4% Tween-80. After 6 hours the animals were over-anesthesized and their stomachs were opened along the greater curvature. The preparations were investigated by stereomicroscopy using an 8-fold enlargement. The number, size and incidence of erosions and ulcers was noted and compared with the control group treated with the carrier only.
The size of the ulcers was determined on the basis of the following score:
1: ulcer or erosion of the size of 1-2 mm;
2: ulcer or erosion of the size of 2-3 mm;
3: ulcer or erosion of the size of 3-4 mm;
4: ulcer longer than 4 mm;
5: ulcer longer and broader than 4 mm.
The ED50 values were calculated on the basis of ulcer-indexes:
ulcer index=/severeity of lesion x number of lesions/number of animals /n/

Data set [3] relates to ulcers induced by reserpine. In words: Reserpine induced ulcers. The format is in vivo, female OFA rats. The note with it: 40 mg/kg p.o.; reserpine 5 mg/kg s.c.; 18 h. As for the experimental part: Female OFA rats of 130-160 g weight, starved for 24 hours, were treated at the same time perorally with 40 mg/kg doses of the substances to be tested and with 5 mg/kg s.c. doses of reserpine. After 18 hours the animals were over-anesthesized and the removed stomachs were investigated under stereomicroscope using a 8-fold enlargement. The number of ulcers was counted and their size was evaluated using 0-0.5-1-2-4-8-16-32 scores. The number of animals was 5 for each dose.

Data set [4] has as its system lesions induced with hydrochloric acid and ethanol. In words: Gastric haemorrhages induced by hydrochloric acid in ethanol (cytoprotection). The note with it: for average length of haemmorrhages, change in %: treated vs control; for protection against hydrochloric acid/ethanol lesions (in words): 100 mg/kg. Format: in vivo, female rats. How it is done: The volume of treatment was 0.5 ml/100 g. […] The average degree of haemorrhages of the treated groups was compared to the control groups treated with the vehicle only. Number of animals was 6-18 in each group.

For data set [5], the system named is stress ulcer caused by immersion. In words: Stress ulcer caused by immersion. The note with it: for erosion inhibition % / erosion ulcus-index mm / hyperemia inhibition % / hyperemia ulcer-index mm: n = 7. Format: in vivo, Wistar rats. How it is done:
30 minutes after peroral treatment with the test substance, […]. After seven hours the glandular lesions appearing in the stomach were evaluated according to the score described in Example I.1.

Data set [6] relates to histamine stimulated hydrochlorid acid secretion. In words: Histamine stimulated gastric acid secretion in Shay rats. Format: in vivo. The note with it: histamine alone 10 mg/kg s.c. As for the experimental part:
The test substances were added on the course of operation intra-duodenally. Immediately after operation each rat obtained 0.50 ml s.c. of a physiological salt solution for hydration. After 4 hours the rats were over-anesthesized, the stomach liquid was collected, centrifugated and the volume determined. […] Measurement of stimulated secretion of gastric acid was also carried out according to the above method.

For data set [7], the system named is lesions caused by the NSAID naproxen. Nature of the data set: Naproxen-induced gastric erosions, test substance 1 hour after naproxen. Format: in vivo, WISTAR rats. The settings on record: naproxen alone 75 mg/kg po., n = 7. How it is done:
(§1) Administration of the test substances followed 1 hour after injection. After 4 hours the animals were over-anesthesized with ether and the changes (erosions) were evaluated as in Example I.1. The size of the lesions was characterized by way of the ulcer index.

Data set [8] has as its system lesions caused by the NSAID piroxicam. In words: Piroxicam-induced gastric erosions, test substance 1 hour after piroxicam. The format is in vivo, WISTAR rats. The settings on record: piroxicam alone 60 mg/kg po., n = 7. As for the experimental part: as §1
The mark [9] stands for this setting: 60 min before 20 mg/kg indomethacin, from ulcer index, confidence limits 95%.
[10] abbreviates: 20.0 mg/kg p.o., control 61.3 ± 9.8 (substance 6, n = 6), 80.4 ± 8.2 (substance 11, n = 12).

`CCO` [100% ethanol, reference compound]: in data set [1], the “Evans-blue” value was 9.45 ± 0.94 µg/g and the “stomach” value is given as 1.1 ± 0.15 g.

In the case of `Clc1ccc2c(-n3cncn3)ccnc2c1` [Substance 2, 4-(1H-1,2,4-triazole-1-yl)-7-chloro-quinoline], the ED50 in data set [2] (setting [9]) was 53 mg/kg.

In the case of `Cc1ccc2c(-n3cncn3)ccnc2c1` [Substance 3, 4-(1H-1,2,4-triazole-1-yl)-7-methyl-quinoline], the ED50 in data set [2] (setting [9]) was determined as 74 mg/kg.

Consider `Cc1cc(-n2cncn2)c2ccccc2n1` [Substance 4, 2-methyl-4-(1H-1,2,4-triazole-1-yl)-quinoline], for which the ED50 in data set [2] (setting [9]) was 44 mg/kg.

Regarding `c1ccc2nc(-n3cncn3)ccc2c1` [Substance 5, 2-(1H-1,2,4-triazole-1-yl)-quinoline], the ED50 in data set [2] (setting [9]) turned out to be 38 mg/kg.

As to `Cc1cc2ccccc2nc1-n1cncn1` [Substance 6, 2-(1H-1,2,4-triazole-1-yl)-3-methyl-quinoline], in data set [3], the “number of ulcers, %change compared with control” value is “+17%”; the “severity of ulcers, %change compared with control” value was -5%; the ulcers per treated is listed as 5/5. Besides, the “average length of haemmorrhages, treated” value in data set [4] (setting [10]) is on record as 48.0 ± 10.3 mm. In addition, the “average length of haemmorrhages, change in %” value (from here on “average length … change in %”) in data set [4] (20.0 mg/kg p.o.) is given as -22%. Besides, the ED50 in data set [2] (setting [9]) was determined as 29 mg/kg.

Take `Cc1cc2ccc(Br)cc2nc1-n1cncn1` [Substance 7, 2-(1H-1,2,4-triazole-1-yl)-3-methyl-7-bromo-quinoline]: the ED50 in data set [2] (setting [9]) amounted to 34 mg/kg.

As to `CCc1ccc2cc(C)c(-n3cncn3)nc2c1` [Substance 8, 2-(1H-1,2,4-triazole-1-yl)-3-methyl-7-ethyl-quinoline], in data set [2] (setting [9]), the ED50 stood at 40 mg/kg.

As to `Cc1cc(Sc2nc[nH]n2)c2ccccc2n1` [Substance 9, 2-methyl-4-(1H-1,2,4-triazole-3-yl-thio)-quinoline], the ED50 in data set [2] (setting [9]) came to 47 mg/kg.

On to `CCc1nc(Sc2cc(C)nc3cc(C)cc(C)c23)n[nH]1` [Substance 10, 2,5,7-trimethyl-4-(5-ethyl-1H-1,2,4-triazole-3-yl-thio)-quinoline], for which the ED50 in data set [2] (setting [9]) turned out to be 74 mg/kg.

For the compound `Cc1cc2ccccc2nc1Sc1nc[nH]n1` [Substance 11, 2-(1H-1,2,4-triazole-3-yl-thio)-3-methyl-quinoline], in data set [3], the “number of ulcers, %change compared with control” value is listed as “+67%”; the “severity of ulcers, %change compared with control” value was “+37%”; the ulcers per treated was 5/5. Besides, in data set [4] (setting [10]), the “average length of haemmorrhages, treated” value is reported as 51.8 ± 10.0 mm. Also, the “average length … change in %” value in data set [4] (20.0 mg/kg p.o.) is recorded as -36%. The ED50 in data set [2] (setting [9]) stood at 14 mg/kg.

Consider `CCc1nc(Sc2nc3ccccc3cc2C)n[nH]1` [Substance 12, 2-(5-ethyl-1H-1,2,4-triazole-3-yl-thio)-3-methyl-quinoline], for which the ED50 in data set [2] (setting [9]) was 74 mg/kg.

In the case of `CN/C(=N/CCSCc1nc[nH]c1C)NC#N` [cimetidine, reference compound], in data set [5] (100 mg/kg p.o.), the erosion inhibition % amounted to 34%, the erosion ulcus-index mm was found to be 24.4 ± 10.0 mm, the hyperemia inhibition % amounted to 21% and the hyperemia ulcer-index mm is listed as 58.1 ± 10.4 mm. For the same compound, in data set [5] (200 mg/kg p.o.), the erosion inhibition % is given as 50%, the erosion ulcus-index mm turned out to be 18.2 ± 11.2 mm, the hyperemia inhibition % turned out to be 39% and the hyperemia ulcer-index mm is given as 48.2 ± 14.6 mm. The “inhibition of hyperemia and erosion (in words)” value in data set [5] (substance 1 at 50 mg/kg p.o., cimetidine) is “no significant inhibition”. Also, the “protection against hydrochloric acid/ethanol lesions (in words)” value in data set [4] is “practically ineffective”. For the same compound, in data set [4] (listed as Cimetidin), the “protection against hydrochloric acid/ethanol lesions (in words)” value is “practically inactive”. The “average length of haemmorrhages, treated” value in data set [4] (300 mg/kg p.o., n = 16, control 74.8 ± 6.4) is listed as 64.2 ± 12.3 mm. Moreover, the “average length … change in %” value in data set [4] (300 mg/kg p.o.) was -24%. The ED50 in data set [2] was determined as 96 mg/kg.

In the case of `NCCc1c[nH]cn1` [histamine, reference compound], in data set [6], the “acid secretion μEqu/4^h” value came out at 1477 ± 80 μEqu/4^h, the “acidity μEqu/ml” value was 237 ± 18 μEqu/ml and the “volume/4^h” value stood at 6.3 ± 0.7 mL.

Take `COc1ccc2cc([C@H](C)C(=O)O)ccc2c1` [naproxen, reference compound]: in data set [7], the “ulcus index ± SEM” value was 25.2 ± 6.1.

Take `CN1C(C(=O)Nc2ccccn2)=C(O)c2ccccc2S1(=O)=O` [piroxicam, reference compound]: the “ulcus index ± SEM” value in data set [8] is 23.3 ± 6.4.
